# In patent publication US20240277637A1, “CAPSAICIN DERIVATIVES IN THE TREATMENT OF IDIOPATHIC PULMONARY FIBROSIS” (aXichem AB, priority 2021, published 2024):
# How the values were obtained:
# [1] = Acute inhalation toxicity test on rats; conditions: both sexes, rat, in vivo, inhaled; single exposure via inhalation, nose-only; male and female rats; based on active substance
# Text: These findings strongly imply that phenylcapsaicin may be a useful drug against IPF, slowing down or reducing scarring of the lung tissue. Such a reduction in scarring may lead to a delayed progression of IPF and/or ease the symptoms of IPF, such as respiratory difficulty and/or coughing. […] This finding is an indication that the compounds of the invention will have a low toxicity in use against IPF using inhalation as the route of administration.
# [2] = system: human bronchial epithelial cells; experiment: Proliferation assay, PDGF-stimulated bronchial epithelial proliferation (Example 2); assay type: cell-based; conditions: for IC50: Homo sapiens, Epithelial cell, 10 ng/ml PDGF, 72 hours
# Experimental: (§1) Primary isolated human bronchial epithelial cells (NHBE) (Normal, Human (ATCC® BEAS-2B™)) were cultured up to passage 6. […].
# (§2) Bronchial cells were harvested by trypsinisation at 37° C. and neutralised with trypsin-neutralising solution. A suspension of 50,000 cells in MPM/DMEM was added to 25 ml flasks. The cells were incubated with phenylcapsaicin or SU9518 for 1 hour in cytokine-free medium at standard conditions and incubated for another 72 hours in the presence of final mediums (either with 10 ng/ml PDGF-AB+4 ng/ml FN, or with 2 ng/ml VEGF+4 ng/ml bFGF+4 ng/ml FN). The cells were then dispersed in trypsin, resuspended, and counted in a coulter counter.
# [3] = system: human bronchial epithelial cells; experiment: Clonogenic cell survival assay, bronchial epithelial cells with PDGF-AB (Example 4); assay type: cell-based; conditions: 10 ng/ml PDGF-AB, 14 days
# Experimental: (§3) Primary isolated human bronchial epithelial cells (NHBE) were used in this assay sourced from the American Tissue Culture Collection (Normal, Human (ATCC® BEAS-2B™)) and were cultured up to passage 6. […].
# The effects of Phenylcapsaicin (2) on clonogenic survival of bronchial epithelial cells, by plating the cells with increasing numbers (102 to 5×104) in 25 cm^2 flasks were investigated. SU9518* and Phenylcapsaicin were used as positive controls. The cells were incubated with 0-10 μM (3% DMSO aqueous) of Phenylcapsaicin, SU9518, and compounds 8-12 separately in the presence of 10 ng/ml PDGF-AB (Sigma Aldrich). The flasks were returned to the incubator for 14 days, after which they were stained with crystal violet (Sigma Aldrich). The colonies were counted and the surviving percentage was determined for clonogenic survival after correcting for plating efficiency. The synthetic analogs were all calculated at 100% purity for molar concentrations.
# [4] = system: human bronchial epithelial cells; experiment: Clonogenic cell survival assay, bronchial epithelial cells with PDGF-AB (Example 2); assay type: cell-based
# Experimental: as §1
# A clonogenic cell survival assay determines the ability of a cell to proliferate indefinitely. The effects of phenylcapsaicin on clonogenic survival of bronchial epithelial cells was investigated by plating the cells with increasing numbers (10^2 to 5×10^4) in 25 cm^2 flasks. SU9518, a known inhibitor for PDGF which has shown the ability to reduce radiation-induced fibroblast and endothelial cell activation, was used as the positive control. The cells were incubated with 0-10 μM of phenylcapsaicin and SU9518 separately in the presence of 10 ng/ml PDGF-AB. The flasks were returned to the incubator for 14 days, after which they were stained with crystal violet. The colonies were counted, and the surviving percentage was determined for clonogenic survival after correcting for plating efficiency.
# [5] = system: human corneal epithelial cells; experiment: Clonogenic cell survival assay, corneal epithelial cells with PDGF-AB (Example 1); assay type: cell-based; conditions: 10 ng/ml PDGF-AB, 14 days
# Experimental: Primary isolated human corneal epithelial cells; Normal, Human cells (ATCC® PCS-700-010™) were maintained in culture at 37° C. with 5% CO2 and 95% humidity in serum reduced (5% fetal calf serum) modified promocell media (MPM) supplemented with 4 ng/ml fibronectin (FN), 2 ng/ml human recombinant vascular endothelial growth factor (VEGF) and 4 ng/ml basic fibroblast growth factor (bFGF).
# A clonogenic cell survival assay determines the ability of a cell to proliferate indefinitely. The effects of phenylcapsaicin (2) on clonogenic survival of corneal epithelial cells was investigated by plating the cells with increasing numbers (102 to 5×104) in 25 cm^2 flasks. SU9518, a known inhibitor PDGF that has shown the ability to reduce radiation-induced fibroblast and endothelial cell activation, was used as the positive control. The cells were incubated with 0-10 μM of phenylcapsaicin and SU9518 separately in the presence of 10 ng/ml PDGF-AB. The flasks were returned to the incubator for 14 days, after which they were stained with crystal violet. The colonies were counted, and the surviving
# [6] = system: human bronchial epithelial cells; experiment: Proliferation assay, VEGF+bFGF-stimulated bronchial epithelial proliferation (Example 2); assay type: cell-based; conditions: 72 hours
# Experimental: as §1, §2
# [7] = Rage Paulsen et al. 2018; cited from earlier work
# [8] = system: human bronchial epithelial cells; experiment: Clonogenic cell survival assay, bronchial epithelial cells with PDGF-AB (Example 3); assay type: cell-based; conditions: 10 ng/ml PDGF-AB, 14 days
# Experimental: as §3
# A clonogenic cell survival assay determines the ability of a cell to proliferate indefinitely. Cells were plated with increasing numbers (102 to 5×10^4) in 25 cm^2 flasks. SU9518, SU9518, a known inhibitor PDGF that has shown the ability to reduce radiation-induced fibroblast and endothelial cell activation, and phenylcapsaicin were used as positive controls. The cells were incubated with 0-10 μM (3% DMSO aqueous) of phenylcapsaicin, SU9518, and compounds 1 and 3-7 separately in the presence of 10 ng/ml PDGF-AB (Sigma Aldrich). The flasks were returned to the incubator for 14 days, after which they were stained with crystal violet (Sigma Aldrich). The colonies were counted and the surviving percentage was determined for clonogenic survival after correcting for plating efficiency.
smiles,measurement,setting,value
"COc1cc(CNC(=O)CCCCC#Cc2ccccc2)ccc1O [Compound 2, N-(4-hydroxy-3-methoxybenzyl)-7-phenylhept-6-ynamide]",LC50,[1],> 5.65 µg/mL
same,IC50,"[2]; read-out: IC50, PDGF-induced epithelial proliferation",~1000 nM
same,IC50,"[2]; read-out: IC50, PDGF-induced proliferation",~2000 nM
same,selectivity for PDGF pathway,"[2]; PDGF- versus VEGF+bFGF-induced proliferation, bronchial cells","work selectively on the PDGF pathway, although at a lower selectivity than in corneal cells"
same,effect on clonogenic survival / PDGF inhibition (words),[3]; 0-10 μM,reduction in the survival fraction of endothelial cells in a dose dependent manner
same,Clonogenic Survival Assay (percent),[3]; 0.10 uM,83%
same,Clonogenic Survival Assay (percent),[3]; 0.50 uM,59%
same,Clonogenic Survival Assay (percent),[3]; 1.00 uM,41%
same,Clonogenic Survival Assay (percent),[3]; 2.00 uM,35%
same,Clonogenic Survival Assay (percent),[3]; 5.00 uM,35%
same,Clonogenic Survival Assay (percent),[3]; 10.00 uM,32%
same,effect on clonogenic survival,"[4]; 0-10 μM, 10 ng/ml PDGF-AB, 14 days",dose-dependent inhibitory effect on survival
same,surviving fraction of epithelial cells,"[4]; 5 μM, 10 ng/ml PDGF-AB, 14 days",35%
same,survival rate of the cells,"[4]; 10 μM, after 14 days, in the presence of PDGF",35%
same,effect on clonogenic survival,[5]; 0-10 μM,dose-dependant inhibitory effect on survival
same,surviving fraction of epithelial cells,[5]; 5 μM,27%
same,"IC75, epithelial proliferation stimulated by VEGF and bFGF",[6],~5000 nM
same,IC50,"[6]; Homo sapiens, Epithelial cell, highest dose tested 10 uM, read-out: IC50, VEGF+bFGF-induced proliferation",> 10000 nM
same,gene mutations and chromosomal damage,[7],safe with regards to gene mutations and chromosomal damage
same,systemic toxicity,[7],low systemic toxicity
same,effect on clonogenic survival / PDGF inhibition (words),[8]; 0-10 μM,reduction in the survival fraction of endothelial cells in a dose dependent manner
same,Clonogenic Survival Assay (percent),[8]; 0.10 μM,83%
same,Clonogenic Survival Assay (percent),"[8]; 0.10 μM, listed as phenylcapsaicin",83%
same,Clonogenic Survival Assay (percent),[8]; 0.50 μM,59%
same,Clonogenic Survival Assay (percent),[8]; 1.00 μM,41%
same,Clonogenic Survival Assay (percent),[8]; 2.00 μM,35%
same,Clonogenic Survival Assay (percent),[8]; 5.00 μM,35%
same,Clonogenic Survival Assay (percent),[8]; 10.00 μM,32%
same,Clonogenic Survival Assay (percent),"[8]; 10.00 μM, listed as phenylcapsaicin",32%
